Experimental data: patent publication US10202379B2, “Substituted polycyclic carbamoyl pyridone derivative prodrug” (priority 2010, dated 2019)
Read-outs that look alike come from different tables or passages of the source.

Tests used:
[1] = BA test (oral absorbability); type: in vivo; conditions: rat; for Parent compound BA(%): oral administration of parent compound; for plasma concentration of the prodrug itself: oral administration, non-fasting, all plasma samples
Description: Experimental Material and Method for Studying Oral Absorbability
(1) Animal to be used: A mouse or rat was used.
(2) Rearing conditions: Mouse and rat ingested a solid feed and sterilized tap water ad-libitum.
(3) Dose and setting of grouping: A predetermined dose was administered orally or intravenously. A group was set as follows. (a dose varied for every compound)
Oral administration 1 to 30 mg/kg (n=2 to 3)
Intravenous administration 0.5 to 10 mg/kg (n=2 to 3)
(4) Preparation of administration solution: For oral administration, a solution or suspension was administered. For intravenous administration, a compound which was solubilized was administered.
(5) Administration method: For oral administration, the administration solution was forcibly administered to the stomach by oral sonde. For intravenous administration, the administration solution was administered with a syringe equipped with an injection needle through a tail vein.
(6) Assessment item: Blood was collected with time, and a plasma drug concentration was measured using LC/MS/MS.
(7) Statistical analysis: Regarding plasma concentration transition, an area under a plasma concentration-time curve (AUC) was calculated using a non-linear minimum square method program WinNonlin (registered trademark), and bioavailability (BA) was calculated from AUC of an oral-administered group and an intervenous-administered group.

[2] = test system: influenza virus; assay: microbe, parasite or virus in culture; type: cell-based; conditions: unidentified influenza virus, 72 h, read-out: CPE EC50, parent compounds (Reference examples); MDBK or MDCK cells, 3 days, WST-8
[3] = target: Cap-dependant Endonuclease (CEN) (RNP fraction, PB1-PB2-PA complex) (Influenza A virus (strain A/Wilson-Smith/1933 H1N1) (Influenza A virus (strain A/WS/1933 H1N1)), UniProt P15659); type: biochemical, influenza A/WSN/33 virus
[4] = test system: influenza virus (A/WS/33, A/Victoria/3/75 or B/Maryland/1/59); type: in vivo; conditions: oral, infected mouse, 14 days after virus infection
[5] = parent compounds (Reference examples), room temperature, 60 minutes

Structure (SMILES) | EC50 [2] | IC50 [3, 5] | also measured
CC(C)N1CN(C2c3ccccc3CSc3ccccc32)n2ccc(=O)c(O)c2C1=O (stereo not drawn) [Reference example 301] | – | – | Parent compound BA(%) [1]: 2.3%
C[C@@H](N1CN([C@H]2c3cccc(F)c3CSc3c(Cl)cccc32)n2ccc(=O)c(O)c2C1=O)C(F)(F)F [Reference example 594] | 4 nM | – | Parent compound BA(%) [1]: 5.0%; IC50 [3]: 11 nM
C[C@@H](N1CN([C@@H]2c3ccccc3SCc3c(F)cccc32)n2ccc(=O)c(O)c2C1=O)C(F)(F)F [Reference example 445] | 4 nM | 13 nM | Parent compound BA(%) [1]: 12.1%
CC(=O)Oc1c2n(ccc1=O)N([C@H]1c3ccccc3CSc3ccccc31)CN([C@H](C)C(F)(F)F)C2=O [Example 20] | – | – | ED50 of single dose (dose for 50% lethality inhibition) [4]: 4.4 mg/kg/day
CC(=O)Oc1c2n(ccc1=O)N(C1c3ccccc3CSc3ccccc31)CN(C(C)C)C2=O (stereo not drawn) [Example 204] | – | – | plasma concentration of the prodrug itself [1]: a determination limit or less
CC(=O)OCOc1c2n(ccc1=O)N(C1c3ccccc3CSc3ccccc31)CN(C(C)C)C2=O (stereo not drawn) [Example 114] | – | – | plasma concentration of the prodrug itself [1]: a determination limit or less
C[C@@H](N1CN([C@@H]2c3ccccc3SCc3cccc(Cl)c32)n2ccc(=O)c(O)c2C1=O)C(F)(F)F [Reference example 429] | 4 nM | – | Parent compound BA(%) [1]: 13.3%
Cc1cccc2c1SCc1c(F)cccc1[C@@H]2N1CN([C@H](C)C(F)(F)F)C(=O)c2c(O)c(=O)ccn21 [Reference example 623] | 3 nM | 21 nM | –
COc1cccc2c1[C@H](N1CN([C@H](C)C(F)(F)F)C(=O)c3c(O)c(=O)ccn31)c1ccccc1SC2 [compound 728] | 4.32 nM | 74.7 nM | –
Cc1cccc2c1CCc1ccccc1C2N1CN([C@H](C)C(F)(F)F)C(=O)c2c(O)c(=O)ccn21 (stereo partly drawn) [Reference example 631] | 41 nM | 75 nM | –
COc1cccc2c1CSc1ccccc1[C@H]2N1CN([C@H](C)C(F)(F)F)C(=O)c2c(O)c(=O)ccn21 [Reference example 600] | 36 nM | 59 nM | –
CC(O)c1cn2c(c(O)c1=O)C(=O)N([C@H](C)C(F)(F)F)CN2[C@@H]1c2ccccc2SCc2cccc(Cl)c21 (stereo partly drawn) [compound 710] | 9.81 nM | – | IC50 [3]: 20.6 nM
C[C@@H](N1CN([C@@H]2c3cccc(F)c3SCc3cccc(Cl)c32)n2ccc(=O)c(O)c2C1=O)C(F)(F)F [Reference example 621] | 2 nM | – | IC50 [3]: 6 nM
N#CCN1CN(C(c2ccccc2)c2ccccc2)n2ccc(=O)c(O)c2C1=O [Reference example 574] | 442 nM | 165 nM | –
C[C@@H](N1CN([C@@H]2c3ccc(Cl)cc3SCc3c(F)cccc32)n2ccc(=O)c(O)c2C1=O)C(F)(F)F [Reference example 663] | 18 nM | 31 nM | –
COCCCC1N(CC(F)(F)F)C(=O)c2c(O)c(=O)ccn2N1C1c2ccc(F)cc2CCc2cc(F)ccc21 (stereo not drawn) [Reference example 643] | 132 nM | 163 nM | –
COCC[C@@H]1N([C@H](C)C(F)(F)F)C(=O)c2c(O)c(=O)ccn2N1C1c2ccccc2CCc2ccccc21 [Reference example 645] | 16 nM | 105 nM | –
C[C@@H](N1CN(C2c3cccc(F)c3CCc3c(F)cccc32)n2ccc(=O)c(O)c2C1=O)C(F)(F)F [Reference example 638] | 21 nM | 130 nM | –
C[C@@H](N1CN([C@@H]2c3ccccc3SCc3cccc(C(F)(F)F)c32)n2ccc(=O)c(O)c2C1=O)C(F)(F)F [compound 741] | 3.51 nM | 21 nM | –
